# Experimental data reported in the METLIN SMRT retention time set (Domingo-Almenara et al. 2019).
# Assay: gradient 5% acetonitrile 3 min, to 50% in 2 min, to 85% in 15 min, held 3 min, 100 µL/min
# Conditions: column: Zorbax Extend-C18 2.1 x 50 mm; eluents: water / acetonitrile, 0.1% formic acid
# Method in brief: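 In both positive and negative ionization mode, a quadrupole time-of-flight mass spectrometer coupled to HPLC analyzed pure standards run in mixtures of ~100 molecules. The Zorbax Extend-C18 column (2.1 × 50 mm, 1.8 μm) was operated at 100 μL/min with water and acetonitrile, each containing 0.1% formic acid. The dead volume was 40 μL and the dwell volume 900 μL. Retention time came from adduct peaks that were computationally picked and individually inspected by hand.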
row,SMILES,RP-LC retention time [s]
1,COc1ccc(CNC(=O)C2(C)CCCN(S(=O)(=O)c3ccccc3Cl)C2)cc1 (stereo not given),932
2,O=C(Cn1c(=O)c2cc(C3CC3)nn2c2ncccc21)NCc1ccc(F)cc1,748
3,O=C(Nc1ccccc1)C1CCCN(C(=O)C2Sc3ccccc3NC2=O)C1 (stereo not given),772
4,NC(=O)C1CCN(C(=O)c2c[nH]c3c(C(F)(F)F)cccc3c2=O)CC1,572
5,COc1ccccc1-c1nc(C2CCN(C(=O)c3n[nH]c4c3CCCC4)CC2)no1,759
6,CCOCCCNC(=O)CN1C(=O)C2CCCCN2c2ccc(C(=O)N3CCCC3)cc21 (stereo not given),694
7,Cc1csc(-c2cc(S(=O)(=O)N3CCN(C(C)C)CC3)cn2CC(=O)N2CCCCC2)n1,688
8,Cc1cccc(CC(=O)N2C[C@@H]3C[C@H]2C[C@@H]3NS(=O)(=O)c2ccccc2)c1,832
9,Cn1nc(N2CCCC(NS(=O)(=O)c3cccc4cccnc34)C2)ccc1=O (stereo not given),698
10,Cc1c(Cl)cccc1NC(=O)N1C[C@H](c2nc(-c3ccncc3)no2)[C@@H](C)C1,827
11,Cc1ccc(Cc2nc(-c3cccc(-c4ccn[nH]4)c3)no2)cc1,999
12,CCc1ccccc1N1C(=O)CN(S(=O)(=O)CC)CC1(C)C(=O)NCc1ccc(F)cc1 (stereo not given),892
13,O=C(CSc1cc(N2CCCCC2)ncn1)Nc1cccc(C(F)(F)F)c1,1020
14,CCCn1cc(CCNC(=O)Nc2cc(F)ccc2F)c2cccnc21,849
15,Cn1c(=O)c2c(ncn2CC2OCCO2)n(C)c1=O,606
16,Cc1ccc(CNC(=O)C2(C)CN(S(C)(=O)=O)CC(=O)N2Cc2ccc(F)cc2)cc1 (stereo not given),836
17,Cc1ccc(-c2nc3nc(C)cc(NCc4ccc5c(c4)OCO5)n3n2)cc1,892
18,O=C(Nc1nc(C(=O)N2CCN(c3ccccn3)CC2)co1)c1cnccn1,517
19,Cc1ccc2c(C(=O)NCCc3cccs3)cc(NC(=O)C3CC3)cc2n1,633
20,CCc1ccccc1NC(=O)N1CCCC1c1nc(-c2ccc(OC)cc2)no1 (stereo not given),976
21,Cc1ccc(N(C)C(=O)CN(C)S(=O)(=O)c2ccc3c(c2)CCCC(=O)N3)cc1,725
22,CC(C)CNC(=O)CC1=C2CCCCC2NC1=O (stereo not given),644
23,CC(C)(C)NC(=O)CN1c2ccc(F)cc2-c2ccccc2S1(=O)=O,905

row,SMILES,RP-LC retention time [s]
1,Cc1cc(C)cc(C(=O)N2CCCC(C(=O)NC3CCCC3)C2)c1 (stereo not given),836
2,Cc1cccc(-c2noc(C3CCCN3S(=O)(=O)c3ccc4c(c3)CCC4)n2)c1 (stereo not given),1270
3,COc1ncc(C(=O)NCc2cccc(Br)c2)cn1,779
4,COc1ccc(C(=O)CC2(O)C(=O)Nc3ccc(C)cc32)c(OC)c1 (stereo not given),685
5,Cc1nnc2cc(N3CCN(C(=O)Nc4ccc5c(c4)OCCO5)CC3)cnn12,595
6,CCn1cc(-c2nc(C(=O)Nc3ccc(F)c(C)c3)cs2)c2cccnc21,987
7,COC(=O)c1ccc(NC(=O)N2[C@H]3CC[C@@H]2c2cnc(C)nc2C3)cc1,653
8,CCc1ccc(CNC(=O)Cn2cnc3nc4c(cc3c2=O)CC(C)CC4)cc1 (stereo not given),855
9,O=C(Nc1nnc(SCc2ccccc2F)s1)c1ccccc1C(F)(F)F,944
10,N#Cc1cccc(NC(=O)Cn2cccc(-c3nc(-c4ccc(Cl)cc4)no3)c2=O)c1,926
11,CCSc1nnc(NC(=O)CCc2c(C)n[nH]c2C)s1,584
12,O=C(NCCc1ccsc1)Nc1ccccc1C(F)(F)F,842
13,Cc1cccc(NC(=O)N2c3ccccc3CC2c2nc(C3CC3)no2)c1C (stereo not given),1100
14,CCC(C)NC(=O)NC1CCN(C2=NS(=O)(=O)C(c3ccc(C)c(C)c3)=C2C)CC1 (stereo not given),888
15,COc1ccc(C2(C(=O)N3CCN(C(=O)N4C[C@H]5C[C@H](C4)[C@H]4CCCC(=O)N4C5)CC3)CC2)cc1,696
16,CN1CCc2c(n(CC(O)Cn3nnc4ccccc43)c3ccccc23)C1=O (stereo not given),754
17,CCN1CCn2cc(S(=O)(=O)Nc3ccc(C)cc3F)cc2C1=O,725
18,COc1nn(C)cc1C(=O)NCC(=O)N1CCc2ccccc2C1,657
19,O=C(NCC1OCCc2ccccc21)C(=O)N1CCCCC1 (stereo not given),716
20,COCC(=O)N1CCCc2ccc(NC(=O)NCc3cccs3)cc21,662
21,Cc1noc(C)c1-c1ccc(S(=O)(=O)NCc2ccco2)cc1,842
22,CCn1cc(C(=O)N2CCC(c3nnc(-c4ccco4)o3)CC2)c(=O)c2ccc(C)nc21,654
23,CCc1ccc2nc(Nc3ncc4c(n3)CC(c3ccccc3)CC4=O)nc(C)c2c1 (stereo not given),636

row,SMILES,RP-LC retention time [s]
1,CCc1ccc(NC(=O)C2CCCN2S(=O)(=O)c2cc3c(cc2Cl)NC(=O)CO3)cc1 (stereo not given),868
2,Cc1cccc(S(=O)(=O)N2CC3CN(C(=O)C4CCCO4)CC(C2)O3)c1 (stereo not given),688
3,CCOC(=O)c1cc(C2CC2)nc2c1c(=O)n(Cc1ccc(OC)cc1)c(=O)n2C,1170
4,CCOc1ccc(S(=O)(=O)N2CCC(c3noc(-c4cccc(OC)c4)n3)CC2)cc1,1150
5,O=c1n(Cc2ccccc2)nc2c(S(=O)(=O)N3CCCCCC3)cccn12,948
6,Cc1cc(-c2nnc(-c3ccc(F)cc3)o2)c(C)n1CC(=O)N1CCCC1,808
7,COc1cc(Cl)ccc1C(=O)N1CCc2nc[nH]c2C1,593
8,CCn1c(CC2CCN(C(=O)c3nccc4ccccc34)C2)nc2cccnc21 (stereo not given),587
9,O=c1cccnn1CCCNS(=O)(=O)c1ccc2c(c1)OCCO2,645
10,CC(C)n1cc(S(=O)(=O)NCc2cccs2)c2cccnc21,833
11,COc1ccc(Cc2nc3nccc(-c4cc(OC)c(OC)c(OC)c4)n3n2)cc1,860
12,CC(=O)N1CCC(C(=O)N2CCCCCCN(C)C(=O)[C@@H]3CCC[C@@H]32)CC1,658
13,CCCN(C)c1nccn2c(=O)n(CC(=O)Nc3ccc(F)c(Cl)c3)nc12,731
14,Cc1cc(C2CCCN2C(=O)Cc2cccc(Cl)c2)no1 (stereo not given),816
15,CCOc1cc(-c2ccc(F)cc2)nc2ccc(NS(=O)(=O)c3ccc(C#N)cc3)cc12,801
16,Cc1cc(-c2nnc(C3CCC3)o2)c(C)n1CC(=O)Nc1ccc(F)c(F)c1,915
17,Cc1ccc(C)c(N2CCN(c3ccnc(SCC(=O)Nc4ccccc4Cl)n3)CC2)c1,1130
18,O=C(CN1CCN(Cc2ccccc2)C1=O)NCc1cccc(Cl)c1,822
19,COc1ccc(NC(=O)N2CC3CN(C)CC(C2)O3)cc1,560
20,COc1ccccc1-c1nc(C2CCN(C(=O)c3cc4ccccc4[nH]3)CC2)no1,930
21,COc1cc2c(cc1OC)C(C(=O)NCCCN1CCCC1=O)C1c3ccccc3CCN1C2=O (stereo not given),663
22,O=S(=O)(c1cc(-c2nnc(C3CC3)o2)co1)N1CCC(N2CCCCC2)CC1,597
23,O=C(NCc1ccccc1F)c1ccc2c(c1)ncn2CCN1CCCC1,574

row,SMILES,RP-LC retention time [s]
1,CCc1ccc(-c2nc(-c3ccc4nnc(CC)n4c3)no2)cc1,1140
2,O=C([C@@H]1C[C@H](F)CN1C(=O)Nc1ccc(F)cc1)N1CCCCC1,690
3,CC(C)(C)c1cc(C(=O)Nc2ccccc2)nc2ccnn12,1250
4,CCCCS(=O)(=O)N1C[C@@H](COC)[C@H](C(=O)NC)C1,626
5,CCc1ccc(-c2nc(-c3ccc4c(c3)ncn4CCN3CCOCC3)no2)cc1,685
6,O=S(=O)(c1ccc(-c2nnc(C3CCC3)o2)o1)N1CCN(C2CCCCC2)CC1,690
7,CC(C)Cn1c(=O)c2ccccc2n(Cc2nc(-c3ccccc3)no2)c1=O,1040
8,O=C(NCc1ccc(C(F)(F)F)cc1)C1CCCN(c2nccnc2Sc2ccccc2)C1 (stereo not given),1140
9,CN1CCN(C(=O)c2c3c(nc4ccccc24)C(=O)N(C2CCCCC2)C3)CC1,600
10,Cc1ccc(S(=O)(=O)c2cnc(N3CCN(c4cccc(C)c4)CC3)nc2N)cc1,1130
11,CCNC(=O)c1ccc(-n2c(C)ccc2C)nc1,566
12,CCn1nccc1-c1cccc(-c2noc(CNC(=O)Cc3ccc(Cl)cc3)n2)c1,922
13,COC(=O)c1cccc(Nc2c(-c3ccc(F)cc3)nc3cnc(Br)cn23)c1,980
14,O=C(C1CN(S(=O)(=O)c2ccccc2)CC12CCCCC2)N1CCOCC1 (stereo not given),840
15,O=S(=O)(Nc1cccn2cnnc12)c1ccc2c(c1)CCC2,736
16,CC1CCN(S(=O)(=O)c2nn(Cc3ccccn3)cc2C(=O)O)CC1,721
17,O=C(Nc1cnc(-c2ccc(Cl)cc2)nc1)c1cccs1,1040
18,Cc1ccc(NC(=O)N2CCCCC2)cc1[N+](=O)[O-],916
19,Cc1cc(C(=O)NC2CC2)c2cc(C(C)C)ccc2n1,636
20,COc1ccccc1-c1nnc(NC(=O)c2ccc3c(c2)CCCC3)o1,822
21,CCn1ncc(NC(=O)c2ccc(Br)cc2)c(N2CCOCC2)c1=O,884
